Biological target: Recombinant human HSD17B13 (Homo sapiens (Human), UniProt Q7Z5P4)
Assay: HSD17B13 rapid-fire mass spectrometry assay (RF/MS assay)
Format: biochemical
Conditions: inhibition of HSD17B13; LTB4 10 μM, NAD+ 0.5 mM, RT 3 h; IC50 ranges A-E
In short: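 Product 12-oxo-LTB4 and substrate LTB4 quantified by RapidFire triple-quad MS in negative mode, giving percent conversion. Reaction: 80 nM recombinant hHSD17B13, 10 μM LTB4, 0.5 mM NAD+, compound up to 100 μM, pH 7.5, RT, 3 h. Variable-slope fit gave IC50; run in duplicate.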

Sequence of Recombinant human HSD17B13 (Q7Z5P4 20-300): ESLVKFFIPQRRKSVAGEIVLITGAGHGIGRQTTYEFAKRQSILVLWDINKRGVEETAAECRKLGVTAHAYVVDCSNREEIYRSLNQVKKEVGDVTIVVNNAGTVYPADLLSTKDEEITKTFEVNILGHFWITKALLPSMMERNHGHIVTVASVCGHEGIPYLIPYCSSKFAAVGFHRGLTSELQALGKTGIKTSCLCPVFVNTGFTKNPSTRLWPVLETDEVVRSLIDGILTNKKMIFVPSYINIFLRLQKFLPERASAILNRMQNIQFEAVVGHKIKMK

| Structure (SMILES) | IC50 |
| --- | --- |
| COc1cc(C(=O)O)ccc1NS(=O)(=O)c1csc(C#Cc2ccc(C(C)(C)C)cc2)n1 [Example 188] | < 100 nM |
| COc1cc(C(=O)O)ccc1NS(=O)(=O)c1csc(C#Cc2ccc(C(C)C)cc2)n1 [Example 189] | < 100 nM |
| COc1cccc(C#Cc2nc(S(=O)(=O)Nc3ccc(C(=O)O)cc3OC)cs2)c1 [Example 190] | < 100 nM |
| COc1cc(C(=O)O)ccc1NS(=O)(=O)c1ccc(-c2cccc(O)c2)s1 [Example 191] | < 100 nM |
| COc1cc(C(=O)O)ccc1NS(=O)(=O)c1ccc(-c2ccccc2O)s1 [Example 192] | 1000 to 100000 nM |
| COc1cc(C(=O)O)ccc1NS(=O)(=O)c1ccc(-c2ccccc2OC)s1 [Example 193] | 100 to 500 nM |
| COc1cc(C(=O)O)ccc1NS(=O)(=O)c1ccc(-c2ccccc2C)s1 [Example 194] | 100 to 500 nM |
| COc1ccccc1C#Cc1nc(S(=O)(=O)Nc2ccc(C(=O)O)cc2OC)cs1 [Example 195] | < 100 nM |
| COc1cc(C(=O)O)ccc1NS(=O)(=O)c1csc(C#Cc2ccccc2Cl)n1 [Example 196] | < 100 nM |
| COc1cc(C(=O)O)ccc1NS(=O)(=O)c1csc(C#Cc2cccc(Cl)c2)n1 [Example 197] | < 100 nM |
| COc1cc(C(=O)O)ccc1NS(=O)(=O)c1ccc(-c2ccc(-c3ccccc3)cc2)s1 [Example 198] | 500 to 1000 nM |
| COc1cc(C(=O)O)ccc1NS(=O)(=O)c1ccc(-c2ccc(-c3ccc(C)cc3)cc2)s1 [Example 199] | 100 to 500 nM |
| COc1cccc(-c2ccc(S(=O)(=O)Nc3ccc(C(=O)O)cc3OC)s2)c1 [Example 200] | < 100 nM |
| COc1cc(C(=O)O)ccc1NS(=O)(=O)c1ccc(-c2ccccc2F)s1 [Example 201] | < 100 nM |
| COc1cc(C(=O)O)ccc1NS(=O)(=O)c1csc(C#Cc2cccc(C(F)(F)F)c2)n1 [Example 202] | < 100 nM |
| COc1cc(C(=O)O)ccc1NS(=O)(=O)c1csc(C#Cc2cccc(F)c2)n1 [Example 203] | < 100 nM |
| COc1cc(C(=O)O)ccc1NS(=O)(=O)c1csc(C#Cc2ccccc2F)n1 [Example 204] | < 100 nM |

| Structure (SMILES) | IC50 |
| --- | --- |
| COc1cc(C(=O)O)ccc1NS(=O)(=O)c1ccc(-c2ccc(-c3ccc(F)cc3)cc2)s1 [Example 205] | 100 to 500 nM |
| COc1ccc(-c2ccc(-c3ccc(S(=O)(=O)Nc4ccc(C(=O)O)cc4OC)s3)cc2)cc1 [Example 206] | 100 to 500 nM |
| COc1cc(C(=O)O)ccc1NS(=O)(=O)c1ccc(-c2ccc(-c3ccc(O)cc3)cc2)s1 [Example 207] | 500 to 1000 nM |
| COc1cc(C(=O)O)ccc1NS(=O)(=O)c1ccc(-c2cccc(F)c2)s1 [Example 208] | < 100 nM |
| COc1cc(C(=O)O)ccc1NS(=O)(=O)c1csc(C#Cc2ccc([N+](=O)[O-])cc2)n1 [Example 209] | 100 to 500 nM |
| COc1cc(C(=O)O)ccc1NS(=O)(=O)c1csc(C#Cc2ccc(N(C)C)cc2)n1 [Example 210] | < 100 nM |
| COc1cc(C(=O)O)ccc1NS(=O)(=O)c1ccc(-c2cccc(C)c2)s1 [Example 211] | < 100 nM |
| COc1cc(C(=O)O)ccc1NS(=O)(=O)c1ccc(-c2cccc(C(F)(F)F)c2)s1 [Example 212] | < 100 nM |
| COc1cc(C(=O)O)ccc1NS(=O)(=O)c1ccc(-c2ccccc2C(F)(F)F)s1 [Example 213] | 100 to 500 nM |
| COc1cc(C(=O)O)ccc1NS(=O)(=O)c1csc(C#CC2CC2)n1 [Example 214] | < 100 nM |
| COc1cc(C(=O)O)ccc1NS(=O)(=O)c1csc(C#Cc2cccnc2)n1 [Example 215] | 100 to 500 nM |
| COc1cc(C(=O)O)ccc1NS(=O)(=O)c1csc(C#Cc2ccncc2)n1 [Example 216] | 100 to 500 nM |
| COc1cc(C(=O)O)ccc1NS(=O)(=O)c1csc(C#CC2CCCC2)n1 [Example 217] | < 100 nM |
| COc1cc(C(=O)O)ccc1NS(=O)(=O)c1csc(C#Cc2cccs2)n1 [Example 218] | < 100 nM |
| COc1cc(C(=O)O)ccc1NS(=O)(=O)c1ccc(-c2ccc(-c3ccc(OC(F)(F)F)cc3)cc2)s1 [Example 219] | 100 to 500 nM |
| COc1cc(C(=O)O)c(F)cc1NS(=O)(=O)c1csc(C#Cc2ccc(C)cc2)n1 [Example 220] | < 100 nM |
